The test system of the assay is splenocytes from LCMV-CL13 infected IFN-γ-YFP mice. It counts as cell-based.
On to `CO[C@@H](CC[C@H](C)[C@H]1O[C@@]23C[C@H](OC(=O)C2=C(O)[C@H](C)CC3(C)C)[C@@H]1C)c1cccc(O)c1` [Neo-debromoaplysiatoxin B], for which the “Mean Z-score at 1 μM (reversal of T-cell exhaustion)” value (“Mean Z-score at 1 μM” below) is 3.6.

Turning to `C/C=C(/C)C(=O)O[C@H]1C(C)=C[C@]23C(=O)[C@@H](C=C(CO)[C@@H](O)[C@]12O)[C@H]1[C@@H](C[C@H]3C)C1(C)C` [Ingenol-3-angelate], the “Mean Z-score at 1 μM” value came out at 30.9.

In the case of `CC(=O)O[C@@]12C[C@@H](C)[C@@]3(O)[C@@H](C=C(CO)C[C@]4(O)C(=O)C(C)=C[C@@H]34)[C@@H]1C2(C)C` [prostratin], the “Mean Z-score at 1 μM” value is given as 48.9.

In the case of `CC(C)[C@H]1C(=O)N[C@H](CO)Cc2cc(NC(=O)/C=C/C=C/c3ccc(C(F)(F)F)cc3)ccc2N1C` [TPPB], the “Mean Z-score at 1 μM” value is recorded as 4.6.

Turning to `CC(=O)O[C@@]12[C@H](O)[C@@H](C)[C@@]3(O)C(C=C(CO)C[C@]4(O)C(=O)C(C)=C[C@@H]34)[C@@H]1C2(C)C` (some centres unmarked) [Phorbol-13-acetate], the “Mean Z-score at 1 μM” value is given as 0.9.

On to `O=S(=O)(NCCCCCCc1ccccc1)c1cccc2c(Cl)cccc12` [5-chloro-N-(6-phenylhexyl)naphthalene-1-sulfonamide], for which the “Mean Z-score at 1 μM” value was 11.1.

Take `CCCCCCCCCCCCCC(=O)O[C@@H]1[C@@H](C)[C@@]2(O)C(C=C(CO)C[C@]3(O)C(=O)C(C)=C[C@@H]23)[C@@H]2C(C)(C)[C@]12OC(C)=O` (some centres unmarked) [12-O-tetradecanoylphorbol-13-acetate]: the “Mean Z-score at 1 μM” value is reported as 17.8.

For the compound `CC1=C[C@]23C(=O)[C@@H](C=C(CO)[C@@H](O)[C@]2(O)[C@H]1O)[C@H]1[C@@H](C[C@H]3C)C1(C)C` [Ingenol], the “Mean Z-score at 1 μM” value is 0.6.

These data come from patent US20220226281A1, “COMPOUNDS FOR USE IN ANTI-CANCER IMMUNOTHERAPY” (priority 2019, published 2022).
